# How the values were obtained:
# BMC = BMC migration towards SDF-1, modified Boyden chamber assay; type: cell-based, mouse; conditions: inhibitor added to upper chamber along with treated BMC; p<0.05
# Method: BMC migration towards SDF-1 was determined using a modified Boyden chamber assay. BMC were pre-incubated with either PBS or the invented solution for 4 hours at 37 deg.C. and transferred to the upper chamber of inserts in a 24-well plate containing DMEM and 100 ng/ml SDF-1. Migrated cells were counted after 6 hrs incubation at 37° C. Inhibitors AMD3100, LY294002, L-NMMA, and anti-CXCR4 antibody were added to the upper chamber along with BMC.
# [1] = test system: mice after surgical implementation of hindlimb ischemia; test: Homing of injected GFP BMC to ischemic hindlimb muscle; type: in vivo, mouse; conditions: SDF-1 protein 100 ng injected into ischemic hindlimb muscle; treated and untreated cells
# Method: SDF1 protein was also injected into the ischemic hindlimb muscle to enhance BMC homing. SDF-1 protein (100 ng) was injected into the ischemic hindlimb muscle of WT BL6 mice twice at consecutive days after the surgery. The hindlimb muscles were recovered 7 days after the cell injection, stained with DAPI for nucleus (light white), and examined for GFP cells (bright white, arrow pointed) incorporation under fluorescent microscopy. (A) untreated BMC, B) Treated BMC, C) Untreated BMC+SDF-1, D) Treated BMC+SDF-1. E) The incorporated GFP cells were quantified as cells per high power field (HPF). *P<0.05, and **P<0.01 versus all other groups (n=6).
Compound,mobility of the treated BMC on addition of inhibitor (BMC),effect of exogenous SDF-1 on homing of injected BMC [1]
c1cc(CN2CCCNCCNCCCNCC2)ccc1CN1CCCNCCNCCCNCC1 [AMD3100],significantly reduced,
CNC(=N)NCCC[C@H](N)C(=O)O [L-NNMA],significantly reduced,
"SDF-1: stromal cell derived factor-1, chemotactic cytokine, protein injected into ischemic hindlimb muscle",,homed more efficiently

# — US20120014926A1, “Activation of Precursor Cells for Cell Therapy” (priority 2009, published 2012)
